# Measurements taken from US20250195490A1, “ALPHA-METHYLENE AND AMINOMETHYL LACTONES AND LACTAMS FOR TREATMENT OF CLOSTRIDIOIDES DIFFICILE INFECTION (CDI)” (Purdue Research Foundation, priority 2022, published 2025).
# Where two headings read alike, the source gives them in different places.
# Experiments:
# Bi. breve = experiment: MIC against human normal gut microbiota: Bifidobacterium breve; format: cell-based
# Text: (§1) The activity of the selected lactones against the human gut microbiota was also examined. Microbiota interfere with C. difficile's ability to colonize the gastrointestinal tract and subsequently cause infection. Many antibiotics inhibit/kill the endogenous microflora, which permits enhanced colonization by C. difficile and infection. Three different bacterial species that are present in the gut microflora were used in this experiment; Bifidobacterium (anaerobic Gram-positive bacteria), Bacteroides (anaerobic Gram-negative bacteria) and Lactobacillus (microaerophilic Gram-positive bacteria). Ideal compounds/drugs are those with selective antibacterial activity against C. difficile so as to protect the indigenous microflora present in the GI tract from being damaged/killed (which will exacerbate infections caused by C. difficile).
# (§2) Bifidobacterium and Bacteroides were first grown for 48 hours at 37° C., anaerobically, using brain heart infusion supplemented (BHIS) agar (brain heart infusion agar supplemented with hemin, vitamin K and L-cysteine). Lactobacillus was cultivated on MRS agar and incubated in the presence of 5% CO2 for 48 hours at 37° C. Each bacterium was suspended in phosphate-buffered saline (PBS) to achieve 0.5 McFarland standard and subsequently diluted in brain heart infusion supplemented broth (for Bifidobacterium and Bacteroides) or in MRS broth (for Lactobacillus) to achieve a bacterial inoculum of approximately 5×10^5 CFU/mL. Bacteria were then seeded in 96-well plates containing serial dilutions of the compounds and incubated for 48 hours. MICs reported in Table 4 are the minimum concentration of compound/control drug that inhibited the visual growth of bacteria.
# L. gasseri = experiment: MIC against human normal gut microbiota: L. gasseri; format: cell-based, Lactobacillus gasseri
# Text: as §1, §2
# L. casei = experiment: MIC against human normal gut microbiota: L. casei; format: cell-based, Lactobacillus casei
# Text: as §1, §2
# MRSA (USA300) = experiment: microbe, parasite or virus in culture; format: cell-based, Staphylococcus aureus
# Method: (§3) Method: The minimum inhibitory concentration (MIC) of the compounds and control drugs, linezolid (antibiotic), vancomycin (antibiotic), 5-fluorocytosine (5-FC, antifungal drug), and fluconazole (antifungal drug) was determined using the broth microdilution method according to the guidelines outlined by the Clinical and Laboratory Standards Institute (CLSI) against clinically relevant bacterial (methicillin-resistant Staphylococcus aureus (MRSA), vancomycin-resistant Enterococcus faecalis (VRE), vancomycin-resistant Enterococcus faecium (VRE), Clostridioides difficile and Escherichia coli) and fungal (Candida albicans) strains. A solution equivalent to 0.5 McFarland standard was prepared from each strain and diluted in cation-adjusted Mueller-Hinton broth (for S. aureus and E. coli), tryptone soy broth (for E. faecalis), or brain heart infusion broth (for E. faecium) to achieve a bacterial inoculum of about 5×10^5 CFU/mL. C. difficile strains were cultured in brain heart infusion broth supplemented with hemin and vitamin K. C. albicans was diluted in RPMI medium supplemented with 3-(N-morpholino) propanesulfonic acid to achieve a fungal concentration of about 1.5×10^3 CFU/mL. Compounds and control drugs were added in the first row of the 96-well plates and diluted with media containing bacteria (to achieve a concentration gradient ranging from 128 to 1 μg/mL). For MRSA, VRE, and E. coli strains, plates were then incubated aerobically at 37° C. for at least 18 hours. C. albicans was incubated aerobically at 37° C. for 24 hours. Plates containing C. difficile were incubated anaerobically at […] for 48 hours.
# Ba. dorsei = experiment: MIC against human normal gut microbiota: Bacteroides dorsei; format: cell-based
# Text: as §1, §2
# [1] = test system: clinically important Clostridioides difficile strains; experiment: MIC against clinically important Clostridioides difficile strains; format: cell-based
# Method: (§4) The antibacterial activity of compounds 48, 50, 51, 61 and 85 against a panel of Clostridioides difficile strains was evaluated. A bacterial solution equivalent to 0.5 McFarland standard was prepared and diluted in brain heart infusion broth supplemented with hemin and vitamin K. Compounds and control drugs were added in the first row of 96-well plates and serially diluted with media containing bacteria (to achieve a concentration gradient ranging from 128 to 1 μg/mL). Plates were then incubated anaerobically at […] for 48 hours.
# Bi. longum = experiment: MIC against human normal gut microbiota: Bifidobacterium longum; format: cell-based
# Text: as §1, §2
# Clostridioides difficile = experiment: MIC by broth microdilution against Clostridioides difficile (Table 1); format: cell-based
# Method: as §3
# L. reuteri = experiment: MIC against human normal gut microbiota: L. reuteri; format: cell-based, Lactobacillus reuteri
# Text: as §1, §2
# L. crispatus = experiment: MIC against human normal gut microbiota: L. crispatus; format: cell-based, Lactobacillus crispatus
# Text: as §1, §2
# [2] = test system: hypervirulent Clostridioides difficile strains; experiment: MIC against hypervirulent Clostridioides difficile strains; format: cell-based
# Method: as §4
# Ba. fragilis = experiment: MIC against human normal gut microbiota: Bacteroides fragilis; format: cell-based
# Text: as §1, §2
smiles,measurement,setting,value
C=C1C(=O)O[C@H](c2ccccc2O)[C@@H]1c1cccc(C#N)c1 (racemic) [Compound 50],MIC,Bi. breve; Bi. breve HM 856,>128 µg/mL
same,MIC,L. gasseri; L. gasseri HM 407,>128 µg/mL
same,MIC,L. casei; L. casei HM 334,>128 µg/mL
same,MIC MRSA (USA300),"MRSA (USA300); aerobic, 37° C., at least 18 hours",>128 µg/mL
same,MIC,Ba. dorsei; Ba. dorsei HM 29,>128 µg/mL
same,MIC,Ba. dorsei; Ba. dorsei HM 717,>128 µg/mL
same,MIC,[1]; CD strain 16,128 µg/mL
same,MIC,[1]; CD strain 18,32 µg/mL
same,MIC,[1]; CD strain 19,128 µg/mL
same,MIC,[1]; CD strain 1801,128 µg/mL
same,MIC,[1]; CD strain 43255,16 µg/mL
same,MIC,[1]; CD strain P6,128 µg/mL
same,MIC,[1]; CD strain P7,128 µg/mL
same,MIC,[1]; CD strain P13,32 µg/mL
same,MIC,[1]; CD strain P19,32 µg/mL
same,MIC,Bi. longum; Bi. longum HM 848,>128 µg/mL
same,MIC Clostridioides difficile,"Clostridioides difficile; anaerobic, 48 hours, strain BAA-1870",8 µg/mL
same,MIC,L. reuteri; L. reuteri HM 120,>128 µg/mL
same,MIC,L. crispatus; L. crispatus HM 375,>128 µg/mL
same,MIC,L. crispatus; L. crispatus HM 421,>128 µg/mL
same,MIC,[2]; CD strain 81,>128 µg/mL
same,MIC,[2]; CD strain 82,64 µg/mL
same,MIC,[2]; CD strain 83,128 µg/mL
same,MIC,[2]; CD strain 84,>128 µg/mL
same,MIC,[2]; CD strain 85,>128 µg/mL
same,MIC,[2]; CD strain 86,128 µg/mL
same,MIC,[2]; CD strain 87,128 µg/mL
same,MIC,[2]; CD strain 90,128 µg/mL
same,MIC,[2]; CD strain 49279,>128 µg/mL
same,MIC,[2]; CD strain 49287,128 µg/mL
same,MIC,[2]; CD strain 49291,64 µg/mL
same,MIC,Ba. fragilis; Ba. fragilis HM 709,>128 µg/mL
same,MIC,Ba. fragilis; Ba. fragilis HM 710,>128 µg/mL
same,MIC,Ba. fragilis; Ba. fragilis HM 711,>128 µg/mL
same,MIC,Ba. fragilis; Ba. fragilis HM 714,>128 µg/mL
"CN[C@H](CC(C)C)C(=O)N[C@H]1C(=O)N[C@@H](CC(N)=O)C(=O)N[C@H]2C(=O)N[C@H]3C(=O)N[C@H](C(=O)N[C@H](C(=O)O)c4cc(O)cc(O)c4-c4cc3ccc4O)[C@H](O)c3ccc(c(Cl)c3)Oc3cc2cc(c3O[C@@H]2O[C@H](CO)[C@@H](O)[C@H](O)[C@H]2O[C@H]2C[C@](C)(N)[C@H](O)[C@H](C)O2)Oc2ccc(cc2Cl)[C@H]1O [Vancomycin, reference compound]",MIC,Bi. breve; Bifidobacterium breve,≤ 1 µg/mL
same,MIC,L. gasseri; Lactobacillus gasseri,> 128 µg/mL
same,MIC,L. casei; Lacticaseibacillus casei,> 128 µg/mL
same,MIC,"MRSA (USA300); Staphylococcus aureus, 18 h, read-out: MIC MRSA (USA300)",1 µg/mL
same,MIC,"Ba. dorsei; Bacteroides, Ba. dorsei HM 717",8 µg/mL
same,MIC,"Ba. dorsei; Bacteroides, Ba. dorsei HM 29",128 µg/mL
same,MIC,"[1]; Clostridioides difficile, CD strain 16, read-out: MIC",1 µg/mL
same,MIC,"[1]; Clostridioides difficile, CD strain 18, read-out: MIC",0.5 µg/mL
same,MIC,"[1]; Clostridioides difficile, CD strain 19, read-out: MIC",1 µg/mL
same,MIC,"[1]; Clostridioides difficile, CD strain 1801, read-out: MIC",1 µg/mL
same,MIC,"[1]; Clostridioides difficile, CD strain 43255, read-out: MIC",1 µg/mL
same,MIC,"[1]; Clostridioides difficile, CD strain P6, read-out: MIC",1 µg/mL
same,MIC,"[1]; Clostridioides difficile, CD strain P7, read-out: MIC",1 µg/mL
same,MIC,"[1]; Clostridioides difficile, CD strain P13, read-out: MIC",1 µg/mL
same,MIC,"[1]; Clostridioides difficile, CD strain P19, read-out: MIC",1 µg/mL
same,MIC,Bi. longum; Bifidobacterium longum,64 µg/mL
same,MIC,"Clostridioides difficile; Clostridioides difficile, BAA1870, 48 h, read-out: MIC Clostridioides difficile",1 µg/mL
same,MIC,L. reuteri; Limosilactobacillus reuteri,> 128 µg/mL
same,MIC,L. crispatus; L. crispatus HM 375,≤1 µg/mL
same,MIC,L. crispatus; Lactobacillus crispatus,≤ 1 µg/mL
same,MIC,"[2]; Clostridioides difficile, CD strain 81",0.25 µg/mL
same,MIC,"[2]; Clostridioides difficile, CD strain 82",0.5 µg/mL
same,MIC,"[2]; Clostridioides difficile, CD strain 83",0.5 µg/mL
same,MIC,"[2]; Clostridioides difficile, CD strain 84",0.25 µg/mL
same,MIC,"[2]; Clostridioides difficile, CD strain 85",2 µg/mL
same,MIC,"[2]; Clostridioides difficile, CD strain 86",0.5 µg/mL
same,MIC,"[2]; Clostridioides difficile, CD strain 87",0.5 µg/mL
same,MIC,"[2]; Clostridioides difficile, CD strain 90",1 µg/mL
same,MIC,"[2]; Clostridioides difficile, CD strain 49279",1 µg/mL
same,MIC,"[2]; Clostridioides difficile, CD strain 49287",0.25 µg/mL
same,MIC,"[2]; Clostridioides difficile, CD strain 49291",0.25 µg/mL
same,MIC,"Ba. fragilis; Bacteroides fragilis, Ba. fragilis HM 710",16 µg/mL
same,MIC,"Ba. fragilis; Bacteroides fragilis, Ba. fragilis HM 711",16 µg/mL
same,MIC,"Ba. fragilis; Bacteroides fragilis, Ba. fragilis HM 714",16 µg/mL
same,MIC,"Ba. fragilis; Bacteroides fragilis, Ba. fragilis HM 709",64 µg/mL
